Experimental data as given in patent US20070111261A1, “Antigens” (priority 2001, published 2007).
Entries after “also recorded” stand apart in the source; their conditions may differ.

Tests used:
[1] = tested on: mouse anti-HPV16 E7 mAb ED17; assay: Dot immunoassay with anti-HPV16 E7 mAb ED17; format: binding; conditions: for Linear determinant recognized by mAb ED17 (epitope mapping): dot immunoassays using 6-mer peptides offset by one residue; for Binding to mAb ED17 in dot immunoassay: 15-mer peptide spotted on membrane, primary antibody 1:500
Description: The peptides corresponding to the three peptide sequences were synthetized and used as antigens in dot immunoassay experiments with MAb-ED17, a mouse monoclonal IgG, raised to the full length E7 oncoprotein. Peptide purity was controlled by analytical HPLC, and the molecular mass of purified peptides confirmed by fast atomic bombardment mass spectrometry. Peptides were dissolved in 0.9% NaCl, aliquoted and stored at −20° C.
Nitrocellulose membranes (Nytran […] pore size, Schleicher & Schüll) were pretreated for 1 min in 4% BSA (bovine serum albumin)/10 mM Tris-HCl, pH 7.5/150 mM NaCl, followed by 10 min activation with 2.5% glutaraldehyde. Peptides (5 Φg) were spotted on the activated membrane, left to dry for 1 hr at room temperature, and probed in phosphate-buffered saline (PBS) containing 4% BSA, 0.1% (v/v) Tween 20, and the primary antibody (1:500). Primary antibody was mouse anti-HPV16 E7 monoclonal IgG1 raised to amino acids 1-98 representing full length E7 (ED17, cat # sc-6981, Santa Cruz Biotechnology, Inc., Santa Cruz, Calif.). Following a 1 h incubation at room temperature, the membrane was washed three times for 10 mins with PBS containing 4% BSA, 0.1% Tween-20 and incubated with horseradish peroxidase-conjugated affinity-purified sheep anti-mouse IgG for 1 h (1:2500; Santa Cruz Biotechnology). Membrane was washed in PBS (4 times for 5 mins), and immunoblots were developed using the enhanced chemiluminescence detection assay (ECL Western blotting analysis system, Amersham Pharmacia Biotech, Milan, Italy).
The identification of the H2-E^k presented HPV 16 E7 epitope was further ananyzed by epitope mapping. Dot immunoassays by using 6-mer peptides offset by one amino acid residue confirmed that the anti-E7 mAb recognized the linear determinant HPV 16 E52-61 YNIVTFCCKC (SEQ ID NO:108) present in the 15-mer peptide RAHYNIVTFCCKCDS (SEQ ID NO:61), having the highest binding potential to the mouse MHC II molecule, and a low degree of similarity to host proteins.
Four peptides were analyzed for epitopic determinants in dot immunoassay tests: E725-39 YEQLNDSSEEEDEID (control; SEQ ID NO:76); E784-98 MGTLGIVCPICSQKP (SEQ ID NO:71); E72-16 HGDTPTLHEYMLDLQ (SEQ ID No:69); E749-63 RAHYNIVTFCCKCDS (SEQ ID NO:61); and E732-46 SEEEDEIDGPAGQAE (SEQ ID NO:39). […] As expected, high similarity peptide E732-46 SEEEDEIDGPAGQAE (SEQ ID NO:39) was not reactive (FIG. 1, peptide 5).
E749-63 RAHYNIVTFCCKCDS (SEQ ID NO:61) was further analyzed by epitope mapping.

[2] = tested on: HPV-transformed tumor cells; conditions: mice; cited from earlier work
MAb-ED17 = assay: NMR spectra confirming epitope screening; format: binding, mouse
Description: To confirm the epitope screening results, NMR spectra were obtained that confirmed the high affinity of MAb-ED17 towards the predicted epitopic peptide RAHYNIVTFCCKCDS (SEQ ID NO:61).

Substance	Binding to mAb ED17 in dot immunoassay [1]	further results
AHYNIVTFCCKC	–	Linear determinant recognized by mAb ED17 (epitope mapping) [1]: recognized
HGDTPTLHEYMLDLQ (listed as Human papillomavirus)	not recognized; also recorded: No immune reaction	–
HPV E744-62 peptide: polypeptide comprising amino acids 44-62 of HPV E7 protein (QAEPDRAHYNIVTFCCKCD; UniProt P03129 44-62, looked up, fragment)	–	Prevention of outgrowth of HPV-transformed tumor cells [2]: effective for preventing outgrowth
MGTLGIVCPICSQKP (listed as Human papillomavirus)	not recognized	–
RAHYNIVTFCCKCDS (listed as Human papillomavirus)	Significant binding; also recorded: significant signal	Affinity of MAb-ED17 towards peptide by NMR spectra (MAb-ED17): high affinity
SEEEDEIDGPAGQAE (listed as Human papillomavirus)	not reactive	–
YEQLNDSSEEEDEID (listed as Human papillomavirus)	no binding	–
YNIVTFCCKC (listed as Human papillomavirus)	–	Linear determinant recognized by mAb ED17 (epitope mapping) [1]: recognized
